We go through one substance from patent publication US20020110601A1, “Antineoplastic platinum therapeutic method and composition” (priority 2000, published 2002).

In data set [1] the test system is malignant pleural mesothelioma. The data set can be described thus: Intrapleural administration in malignant pleural mesothelioma: indwelling catheter versus needle. On the set-up: species or system human. To be noted: in vivo. The method, then:
The first cycle of platinum drug by the present invention was administered 7 days after a baseline thoracoscopy. […] The starting fluid volume infused was 225 ml. Dosages of up to about 450 mg/M^2 are useful, but the empirical end point is compromised respiration such as shortness of breath. […] Repeated administrations were given every 3 to 4 weeks with attention to the presence or absence of a draining pleural effusion without loculation or (adhesions). That is a loculation surrounding the catheter entry must be broken u or carefully drained at the time of additional drug introduction to avoid hydrostatic pressure increases. […] If the fluid was still draining through the indwelling catheter, the patient received a third treatment seven days after the this thoracoscopy. […] While the course of treatment is within the skill of the medical professional with a view to the presenting condition of each patient, some initial parameters are noted. Intrapleural infusion is usefully held between consecutive cycles until the absolute granulocyte count is >1,500/mm^3 and platelets >100,000/mm^3 and complete recovery of non-hematological toxicities.

The conditions of data set [2]: in vivo, iv; cited from earlier work.
The subject of data set [3] is malignant pleural effusions. The following applies: human, in vivo.
Method: A Phase I trial using the procedures of the present invention employed L-NDDP administered by intrapleural administration in patients with malignant pleural effusions.
Therapy began with a starting dose was 75 mg/m^2. […] Four patients were treated at the highest tested dose of 550 mg/m^2.

As to “liposomal-cis-bis-neodecanoato-trans-R,R-1,2-diaminocyclohexane platinum (II) [L-NDDP]”, the extravasation and sepsis entry in data set [1] is “avoided extravasation and sepsis”. Besides, the dose limiting toxicity entry in data set [2] was “myelosuppression”. Also, in data set [3], the local pain entry is given as “no local pain”; the toxicity entry is “mild nausea and vomiting”. In addition, the systemic toxicity entry in data set [3] (iv) is “No systemic toxicity”.
